Data set [1] deals with intestinal tumors in F344 Pirc rats. Kind of data set: Effect of celecoxib on intestinal tumor multiplicity in F344 Pirc rats (screening for carcinogenesis inhibitory activity). Format: in vivo, rat. The settings on record: for Average number of tumors in large intestine / Average number of tumors in small intestine / Average total number of tumors: celecoxib 1200 ppm diet from about 40 days of age, necropsy at about 22 weeks, n=9. Here is the method:
Shown in Table 5 is an example of the use of a Pirc rat for screening a compound for carcinogenesis inhibitory activity. The effect of celecoxib on intestinal tumor multiplicity in F344 Pirc rats was tested. At about 40 days of age, Pirc rats backcrossed with F344-Tac and F334 control rats were fed celecoxib at 1200 ppm diet. The rats were killed at about 22 weeks of age (about 150-160 days of age). Necropsy was performed to identify 1-2 mm tumors in the intestines.

Data set [2] relates to intestinal tumors in F344-Pirc rats. The data set is described as follows: Tumor multiplicities in F344-Pirc rats after somatic ENU treatment. Format: in vivo, rat. Conditions: ENU treated, male, age 7 mo. Here is the method: Somatic ENU treatment. ENU was dissolved in 95% EtOH and measured with a spectrophotometer at […] to obtain a final concentration of 1 mg/ml. Either the ENU solution or 95% EtOH was injected intraperitoneally into 13-20 day old rats at 18 or 40 mg/kg of body mass. Treated animals were isolated in a laminar flow hood for at least three days before being returned to normal housing.
Tumor multiplicities were determined for both adenomas and microadenomas (neoplasms less than 0.5 mm in diameter). A significant dependence on gender was observed, with males developing more of both types of tumor in all regions of the intestinal tract. There was also a monotonic increase in tumor multiplicity with age, reaching an average of 14 colonic adenomas in males and 9 in females over eight months of age (Tables 3 and 4).
Shown in Table 3 are the tumor multiplicities in Pirc rats. Colonic microadenoma multiplicities could not be accurately measured without histopathological confirmation and were excluded from these analyses. Neoplasms less than 0.5 mm in size were classified as microadenomas.

[3] abbreviates: Female Pirc rat, celecoxib 1200 ppm diet vs control diet.
The mark [4] stands for this setting: Male Pirc rat, celecoxib 1200 ppm diet vs control diet.
The mark [5] stands for this setting: N=3, ENU intraperitoneally at 18 or 40 mg/kg in 13-20 day old rats.

As to `Cc1ccc(-c2cc(C(F)(F)F)nn2-c2ccc(S(N)(=O)=O)cc2)cc1` [Celecoxib, celecoxib], in data set [1] (Female Pirc rat), the “Average number of tumors in large intestine” value stood at 0.1, the “Average number of tumors in small intestine” value turned out to be 0.9 and the “Average total number of tumors” value was found to be 1.0. Also, in data set [1] (setting [3]), the “Relative reduction in number of tumors (large intestine)” value stood at 93% and the “Relative reduction in number of tumors (total)” value amounted to 50%. For the same compound, in data set [1] (Male Pirc rat), the “Average number of tumors in large intestine” value turned out to be 1.2, the “Average number of tumors in small intestine” value amounted to 1.3 and the “Average total number of tumors” value is reported as 2.6. In addition, in data set [1] (setting [4]), the “Relative reduction in number of tumors (large intestine)” value is reported as 61%, the “Relative reduction in number of tumors (small intestine)” value was determined as 82% and the “Relative reduction in number of tumors (total)” value is 76%.

Take `CCN(N=O)C(N)=O` [ENU, N-ethyl-N-nitrosourea]: in data set [2] (setting [5]), the “Colonic polyps, mean ± SD” value is reported as 79 ± 11 and the “Lesions in small intestine, mean ± SD: Adenomas” value is on record as 57 ± 13. For the same compound, in data set [2] (N=3, neoplasms less than 0.5 mm), the “Lesions in small intestine, mean ± SD: Microadenomas” value is 665 ± 103.
